From patent US20210322327A1, “EXTRACELLULAR VESICLES COMPRISING STING-AGONIST” (Codiak BioSciences, Inc., priority 2018, published 2021)

Tests used:
[1] = Plasma pharmacokinetics after intravenous injection; type: in vivo, C57BL/6 mice; conditions: 20 μg free
Description: To examine the pharmacokinetics of STING agonist in mouse plasma, naïve C57BL/6 mice were injected intravenously with 20 μg of free 3-3 cAIMPdFSH, or 0.1 μg, 0.3 μg, 0.6 μg 3-3 cAIMPdFSH loaded in PTGFRN-overexpressing exosomes. One, five, ten, and thirty minutes injection, blood was taken, and plasma were prepared. The concentration of 3-3 cAIMPdFSH was measured by LC-MS/MS, as described in Example 1.

[2] = test system: ovalbumin (OVA)-reactive T-cells; test: OVA-reactive memory T-cells by tetramer flow cytometry; type: in vivo, C57BL/6 mice; conditions: six days
Description: STING pathway agonism in dendritic cells enhances antigen presentation, IFNβ production, and recruits CD8+ memory T-cells to elicit a durable adaptive immune response. To determine whether Exo STING could induce a memory T-cell response to a defined antigen, an antigen-specific T-cell response study was carried out using purified ovalbumin (OVA). C57BL/6 mice were injected intraperitoneally with 200 μg OVA mixed with either PBS, 20 μg ML RR-S2, 0.2 μg ML RR-S2, or 0.2 μg ML RR-S2 loaded in PTGFRN-overexpressing exosomes (n=4-10 mice per group). Six days post-injection, spleens and mesenteric lymph nodes were collected, homogenized to a single-cell suspension, and live lymphocytes were enriched by density centrifugation. Isolated lymphocytes were analyzed by flow cytometry by measuring binding to immobilized tetrameric MHC class I bound to the OVA peptide SIINFEKL and phycoerythrin (PE) (iTAg Tetramer/PE—H-2 OVA; MBL®, Code #T03000). OVA-reactive memory T-cells were quantified by gating on PE, CD44, and CD8 positivity.

[3] = test system: B16F10 murine melanoma cells; test: B16F10 primary tumor and re-challenge, durable T cell responses; type: in vivo, C57BL/6 mice
Description: Six, nine, and twelve days post-inoculation, the tumors were injected intratumorally with PBS, exosomes, 100 μg of free ML RR-S2 CDA, or 0.2 μg 3-3 cAIMPdFSH loaded in PTGFRN-overexpressing exosomes. […] Five additional naïve mice were inoculated with the same tumor cell preparation and treated daily with PBS to ensure cell viability and growth kinetics. By day 37 (17 days post-challenge) all mice in the PBS group were sacrificed.

B16F10 cells = test: B16F10 re-challenge on the opposite flank; type: in vivo, C57BL/6 mice; conditions: 20 μg group, re-challenged day 21, read day 39
Description: STING pathway activation leads to memory T-cell recruitment and ultimately a durable adaptive immune response. To determine whether the anti-tumor effects in this study led to an immune response, the five animals in the high dose STING agonist and Exo STING groups were re-challenged on day 21 by transplantation of 5×10^5 B16F10 cells on the opposite flank. Five additional naïve mice were inoculated with the same tumor cell preparation and treated daily with PBS to ensure cell viability and growth kinetics. By day 39 (18 days post-challenge) all mice in the PBS group were sacrificed.

A20 lymphoma cells = test: CIVO intratumoral microinjection, IFNβ mRNA by in situ hybridization; type: in vivo, BALB/cAnNHsd mice; conditions: high dose free (printed 2 g), four hours post-injection
Description: All experiments in mice were approved by IACUC Board of Presage Biosciences, Seattle, Wash. (Protocol number PR-001) and were performed at Presage in accordance with relevant guidelines and regulations. All relevant procedures were performed under anesthesia and all efforts were made to minimize pain and suffering. Female BALB/cAnNHsd mice (Envigo) with an average weight of 18 gm were used for experiments at 5-7 weeks of age. For generating A20 allografts, mice were inoculated with 1 million A20 cells in 100 μl inoculation volume.
CIVO intra-tumoral microinjections were performed as described in Klinghoffer et al. (2016) Science Translational Medicine. Briefly, mice (n=6 per time point, 4 and 24 hours) were enrolled in microinjection studies when implanted tumors reached the following approximate dimensions: 14 mm (length), 10 mm (width) and 7 mm (depth). […]
Images of every cell from each tissue section stained were captured by digital, automated, high-resolution whole-tissue scanning (3D Histech Panoramic 250 Flash). Tumor responses were quantified from image files from each tissue section using Presage's custom CIVO Analyzer image analysis platform. […] In order to mitigate the influence of pre-existing necrosis on biomarker measurements, injection sites that fall within largely acellular tumor regions are excluded prior to quantitative analysis. […]

| SMILES | half-life in plasma [1] | OVA-reactive T-cells in spleen and mesenteric lymph nodes ([2]; 0.2 μg IP with 200 μg OVA) | OVA-reactive T-cells in spleen and mesenteric lymph nodes ([2]; 20 μg IP with 200 μg OVA) | animals in which re-challenge tumor growth was not inhibited ([3]; 100 μg free group, re-challenged day 20, read day 37) | animals that showed complete response (primary tumor) ([3]; 100 μg free, intratumoral days 6, 9, 12) | animals in which re-challenge tumors failed to grow (B16F10 cells) | IFNβ mRNA levels (A20 lymphoma cells) |
| --- | --- | --- | --- | --- | --- | --- | --- |
| Nc1ncnc2c1ncn2[C@@H]1O[C@@H]2COP(=O)(S)O[C@H]3[C@@H](F)[C@H](n4cnc5c(=O)[nH]cnc54)O[C@@H]3COP(O)(=S)O[C@H]2[C@H]1F (stereo partly shown) [3-3 cAIMPdFSH, 3′3′-cAIMPdFSH] | 1.2 min | – | – | – | – | – | – |
| Nc1ncnc2c1ncn2[C@@H]1O[C@@H]2COP(O)(=S)O[C@@H]3C(O)[C@@H](COP(O)(=S)O[C@H]2[C@H]1O)O[C@H]3n1cnc2c(N)ncnc21 (stereo partly shown) [ML RR-S2 CDA] | – | no activity in the spleen and only a modest response in mesenteric lymph nodes | A greater proportion of OVA-reactive T-cells | 10 out of 10 | ten | four out of 5 | comparable between the high dose STING agonist and the PTGFRN O/E EXOSTING™ groups |
